Results as given in ChEMBL document CHEMBL1128729, “Alpha- and beta-adrenoceptors: from the gene to the clinic. 2. Structure-activity relationships and therapeutic applications” (J Med Chem, 1995).

Experiments:
[1] = Activity for Alpha-1 adrenergic receptor was assessed from effect on contraction of reserpine-pretreated guinea pig ileum; format: functional, tissue-based
[2] = Activity for Alpha-1 adrenergic receptor was assessed from effect on inhibition of neurotransmission in field-stimulated, reserpine-pretreated guinea pig ileum.; format: functional, tissue-based
[3] = Effective concentration for inhibition of neurotransmission in field-stimulated, reserpine-pretreated guinea pig ileum.; format: functional, tissue-based
[4] = Effective dose for compound on contraction of reserpine-pretreated guinea pig aorta.; format: functional, tissue-based
[5] = Effective dose for on contraction of rabbit aorta.; format: functional, tissue-based
[6] = target: Beta-2 adrenergic receptor (Cavia porcellus, UniProt Q8K4Z4); assay: Activity for Beta-2 adrenergic receptor was assessed from effect on relaxation of guinea pig trachea.; format: functional
Sequence of Beta-2 adrenergic receptor (Q8K4Z4 whole entry): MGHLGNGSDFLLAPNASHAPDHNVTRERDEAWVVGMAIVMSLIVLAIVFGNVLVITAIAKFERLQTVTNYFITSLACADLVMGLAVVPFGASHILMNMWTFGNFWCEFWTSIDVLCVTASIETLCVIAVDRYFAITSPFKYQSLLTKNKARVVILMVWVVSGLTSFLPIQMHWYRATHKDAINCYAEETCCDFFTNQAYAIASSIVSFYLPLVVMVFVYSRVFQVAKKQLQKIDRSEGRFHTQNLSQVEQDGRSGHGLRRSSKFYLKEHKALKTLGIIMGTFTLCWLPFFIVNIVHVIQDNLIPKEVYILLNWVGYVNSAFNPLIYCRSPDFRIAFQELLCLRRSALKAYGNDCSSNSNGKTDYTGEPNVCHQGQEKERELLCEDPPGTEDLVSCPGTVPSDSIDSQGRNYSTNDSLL

Nischarin = Nischarin (Homo sapiens, UniProt Q9Y2I1); assay: Binding affinity for imidazoline receptor I-1
Sequence of Nischarin (Q9Y2I1 whole entry): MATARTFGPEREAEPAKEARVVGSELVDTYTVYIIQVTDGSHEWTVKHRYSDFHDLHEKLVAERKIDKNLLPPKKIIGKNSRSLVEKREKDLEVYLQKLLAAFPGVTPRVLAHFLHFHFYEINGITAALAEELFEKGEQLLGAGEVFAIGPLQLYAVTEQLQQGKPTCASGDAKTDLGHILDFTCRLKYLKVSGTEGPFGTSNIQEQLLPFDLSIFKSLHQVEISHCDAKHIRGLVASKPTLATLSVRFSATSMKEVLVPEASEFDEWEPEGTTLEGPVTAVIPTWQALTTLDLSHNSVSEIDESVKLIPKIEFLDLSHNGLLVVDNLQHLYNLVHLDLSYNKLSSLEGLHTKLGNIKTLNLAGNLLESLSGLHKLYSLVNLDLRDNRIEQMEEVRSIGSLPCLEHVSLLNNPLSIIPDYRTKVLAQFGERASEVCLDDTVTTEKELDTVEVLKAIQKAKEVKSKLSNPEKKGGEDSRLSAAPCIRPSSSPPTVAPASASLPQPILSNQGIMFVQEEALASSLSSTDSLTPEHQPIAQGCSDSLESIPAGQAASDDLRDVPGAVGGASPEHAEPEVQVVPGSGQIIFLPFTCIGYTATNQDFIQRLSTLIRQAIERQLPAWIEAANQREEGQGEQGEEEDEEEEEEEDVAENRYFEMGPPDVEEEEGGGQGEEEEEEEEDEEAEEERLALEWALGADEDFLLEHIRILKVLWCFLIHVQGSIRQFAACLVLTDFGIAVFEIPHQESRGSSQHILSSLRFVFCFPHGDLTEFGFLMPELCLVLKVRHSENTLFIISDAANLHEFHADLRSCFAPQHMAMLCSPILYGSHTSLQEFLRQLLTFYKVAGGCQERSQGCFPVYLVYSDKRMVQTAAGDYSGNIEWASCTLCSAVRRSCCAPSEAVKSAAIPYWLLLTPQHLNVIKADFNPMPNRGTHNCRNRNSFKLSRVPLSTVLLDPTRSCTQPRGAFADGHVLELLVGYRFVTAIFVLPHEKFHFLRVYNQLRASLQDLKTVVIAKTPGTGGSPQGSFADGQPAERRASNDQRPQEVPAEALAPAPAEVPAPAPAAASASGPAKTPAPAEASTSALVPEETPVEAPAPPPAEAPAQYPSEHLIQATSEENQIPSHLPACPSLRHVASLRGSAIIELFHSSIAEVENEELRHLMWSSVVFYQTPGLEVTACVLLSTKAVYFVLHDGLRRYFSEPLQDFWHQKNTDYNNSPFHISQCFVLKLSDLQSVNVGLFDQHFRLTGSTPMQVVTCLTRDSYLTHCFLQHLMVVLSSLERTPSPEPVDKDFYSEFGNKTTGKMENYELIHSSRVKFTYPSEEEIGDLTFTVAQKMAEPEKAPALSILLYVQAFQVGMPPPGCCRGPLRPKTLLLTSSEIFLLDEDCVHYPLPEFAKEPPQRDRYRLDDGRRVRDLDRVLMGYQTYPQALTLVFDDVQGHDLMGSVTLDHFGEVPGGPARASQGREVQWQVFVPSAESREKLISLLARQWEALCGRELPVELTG

Monoamine oxidase = target: T1, Monoamine oxidase (Homo sapiens, UniProt P21397+P27338); assay: Binding affinity for imidazoline receptor I-2; format: protein assay
T1 sequence (P21397 whole entry): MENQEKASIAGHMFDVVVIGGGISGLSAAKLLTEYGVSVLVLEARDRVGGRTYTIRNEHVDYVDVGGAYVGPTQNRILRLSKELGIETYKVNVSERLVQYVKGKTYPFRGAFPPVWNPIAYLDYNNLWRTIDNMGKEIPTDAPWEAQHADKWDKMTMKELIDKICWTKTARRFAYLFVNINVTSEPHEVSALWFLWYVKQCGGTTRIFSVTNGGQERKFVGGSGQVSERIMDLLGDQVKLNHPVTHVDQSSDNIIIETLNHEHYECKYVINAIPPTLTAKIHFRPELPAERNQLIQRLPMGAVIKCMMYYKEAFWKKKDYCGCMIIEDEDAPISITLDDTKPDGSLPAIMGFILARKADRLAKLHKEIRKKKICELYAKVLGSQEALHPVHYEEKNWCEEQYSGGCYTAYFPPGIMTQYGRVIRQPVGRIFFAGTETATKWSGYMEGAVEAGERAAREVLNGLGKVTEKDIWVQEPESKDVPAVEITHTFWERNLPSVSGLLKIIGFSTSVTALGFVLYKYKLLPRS
T1 sequence (P27338 whole entry): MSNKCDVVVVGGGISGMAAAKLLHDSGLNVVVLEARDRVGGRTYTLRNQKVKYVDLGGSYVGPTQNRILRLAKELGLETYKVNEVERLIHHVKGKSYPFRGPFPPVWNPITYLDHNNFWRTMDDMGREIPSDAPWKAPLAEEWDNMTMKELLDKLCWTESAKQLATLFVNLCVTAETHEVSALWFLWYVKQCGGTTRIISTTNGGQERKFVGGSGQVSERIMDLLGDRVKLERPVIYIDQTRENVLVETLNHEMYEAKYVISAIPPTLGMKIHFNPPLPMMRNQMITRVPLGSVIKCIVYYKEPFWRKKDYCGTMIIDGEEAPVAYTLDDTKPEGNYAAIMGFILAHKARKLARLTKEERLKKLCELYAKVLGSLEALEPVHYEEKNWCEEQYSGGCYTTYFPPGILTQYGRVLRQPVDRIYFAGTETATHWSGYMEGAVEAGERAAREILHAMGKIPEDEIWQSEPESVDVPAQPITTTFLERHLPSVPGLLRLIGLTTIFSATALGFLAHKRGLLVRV

[7] = target: T2, Adrenergic receptor alpha-1 (Rattus norvegicus, UniProt P15823+P23944+P43140); assay: Effective dose for contraction of reserpine-pretreated rat vas deferens.; format: functional
T2 sequence (P15823 whole entry): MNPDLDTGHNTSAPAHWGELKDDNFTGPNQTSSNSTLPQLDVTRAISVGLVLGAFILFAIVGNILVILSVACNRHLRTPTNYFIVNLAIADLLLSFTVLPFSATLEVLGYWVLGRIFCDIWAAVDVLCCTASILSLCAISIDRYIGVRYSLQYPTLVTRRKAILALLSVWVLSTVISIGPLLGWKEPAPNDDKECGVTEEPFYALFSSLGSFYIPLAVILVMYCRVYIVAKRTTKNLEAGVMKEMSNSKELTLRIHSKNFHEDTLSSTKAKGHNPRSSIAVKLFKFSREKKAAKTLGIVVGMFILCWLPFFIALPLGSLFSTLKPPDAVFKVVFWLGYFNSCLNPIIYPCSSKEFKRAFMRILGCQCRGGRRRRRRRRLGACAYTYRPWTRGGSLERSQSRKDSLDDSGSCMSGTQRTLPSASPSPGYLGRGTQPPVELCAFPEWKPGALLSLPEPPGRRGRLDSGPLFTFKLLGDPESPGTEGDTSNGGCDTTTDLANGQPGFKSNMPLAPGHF
T2 sequence (P23944 whole entry): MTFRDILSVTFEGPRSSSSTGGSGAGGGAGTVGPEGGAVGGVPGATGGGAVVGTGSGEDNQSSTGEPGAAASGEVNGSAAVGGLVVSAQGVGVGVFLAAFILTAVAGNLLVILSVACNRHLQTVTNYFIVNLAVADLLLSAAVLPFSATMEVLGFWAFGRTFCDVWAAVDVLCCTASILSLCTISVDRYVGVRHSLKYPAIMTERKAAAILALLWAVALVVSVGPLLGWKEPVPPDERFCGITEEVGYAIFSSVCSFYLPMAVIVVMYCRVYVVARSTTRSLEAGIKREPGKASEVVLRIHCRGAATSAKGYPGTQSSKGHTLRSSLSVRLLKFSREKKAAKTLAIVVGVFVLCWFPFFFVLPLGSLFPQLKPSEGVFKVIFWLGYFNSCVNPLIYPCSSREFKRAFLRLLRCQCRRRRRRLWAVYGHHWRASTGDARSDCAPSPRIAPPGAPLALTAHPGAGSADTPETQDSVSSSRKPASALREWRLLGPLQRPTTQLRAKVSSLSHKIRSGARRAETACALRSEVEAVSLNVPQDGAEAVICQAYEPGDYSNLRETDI
T2 sequence (P43140 whole entry): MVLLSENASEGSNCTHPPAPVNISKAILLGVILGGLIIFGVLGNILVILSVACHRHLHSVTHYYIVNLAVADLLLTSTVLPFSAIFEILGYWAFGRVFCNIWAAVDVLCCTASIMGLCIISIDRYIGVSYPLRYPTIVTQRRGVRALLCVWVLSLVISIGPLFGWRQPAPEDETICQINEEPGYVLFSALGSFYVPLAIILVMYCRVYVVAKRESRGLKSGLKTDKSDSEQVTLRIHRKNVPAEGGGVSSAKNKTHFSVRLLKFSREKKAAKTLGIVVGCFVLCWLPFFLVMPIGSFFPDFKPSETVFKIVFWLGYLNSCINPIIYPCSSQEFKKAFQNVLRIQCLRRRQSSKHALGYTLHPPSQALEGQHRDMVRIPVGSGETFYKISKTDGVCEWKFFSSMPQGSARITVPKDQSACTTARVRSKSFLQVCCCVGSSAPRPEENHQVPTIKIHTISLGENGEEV

[8] = Effective dose for contraction of reserpine-pretreated guinea pig aorta.; format: functional, tissue-based
[9] = Effective dose for inhibition of neurotransmission in field-stimulated, reserpine-pretreated guinea pig ileum.; format: functional, tissue-based
[10] = Effective dose for contraction of rabbit aorta.; format: functional, tissue-based

C[C@@H](N)[C@@H](O)c1ccc(O)c(O)c1
EC50 [1]: 46800 nM | EC50 [2]: 10000 nM

NCC(O)c1ccc(O)c(O)c1 (single isomer, unassigned) [NOREPINEPHRINE]
EC50 [3]: 14500 nM | EC50 [4]: 12000 nM | EC50 [5]: 2000 nM | EC50 [6]: 30000 nM

Clc1cccc(Cl)c1NC1=NCCN1 [CLONIDINE]
Ki (Nischarin): < 10 nM | Ki (Monoamine oxidase): > 100 nM

C[C@H](N)[C@H](O)c1ccc(O)c(O)c1 [LEVONORDEFRIN]
EC50 [3]: 19 nM | EC50 [7]: 776 nM

NC[C@H](O)c1ccc(O)c(O)c1 [NOREPINEPHRINE]
EC50 [8]: 112 nM | EC50 [9]: 30 nM | EC50 [10]: 6.6 nM | EC50 [6]: 213 nM
